Measurements: US6426362B1, “Formulations of tocopherols and methods of making and using them” (Galileo Laboratories, Inc., priority 1999, dated 2002)

Test system: Oxidatively competent cells
Assay: Antimycin A-induced cell death in oxidatively competent cells, SYTOX assay after 4 hours
Assay type: cell-based, rat-human hybrid (GCL1)
Settings: for Cell Death (%): ± SD; for cell death when tested individually: highest concentrations tested; for potency among the tocopherols tested: Table 1 comparison
Excerpt: The GCL1 (WiF-B) liver cell line is a hybrid originating from the fusion of rat hepatoma cells (fao) and human fibroblasts (W138). Cassio et al. (1991) J. Cell Biol. 115:1397-1408; Shanks et al. (1994) J. Cell Science 107:813-825. […] Ihrke et al. 1993, J. Cell Biol. 123:1761-1775. At greater than 80% confluence, more than 80% of the cells participate in forming one or more phaselucent, spherical structures that are located between cells, termed bile canicular-like spaces. In contrast to the majority of cell lines maintained in culture which are fermentative, GCL1 cells, when at their maximal density and polarity, are highly oxidative (i.e., they can be readily killed by inhibitors of oxidative phosphorylation or electron transport uncouplers). […] These cells are amenable to use in high throughput screening (HTS) technology.
Energetically competent cells are seeded onto 96-well plates at 1×10^3/well or 2.5×10^3/well as passage 15. The cells are grown in DMEM with 10% FBS and 1.5 g/L sodium bicarbonate for 24 or 48 hours to reach 85% confluence. The cells are washed once with HBSS and then 100 μl of HBSS containing different concentration of AA (Sigma Chemical Co., Cat # A 8674) is added to the cells. AA is dissolved in DMSO to make a stock solution of 50 mM, then diluted with HBSS to 100, 50, 25, 12.5, 6.25, 3.125, and 1.56 μM for dose-response curves. The cells, with or without AA, are incubated at 37° C. in a 5% CO2 humidified incubator for 1, 3, and 5 hours. The concentration of AA is chosen to induce 75% or 100% cell death as a screening dose to test the effect of tocopherols to protect against AA-induced cell toxicity. The concentration of agents used for screening will be dependent upon the agents. Certain control groups contain 100 μl of HBSS only.
SYTOX Green nucleic acid stain is a high-affinity nucleic acid stain that easily penetrates cells with a compromised plasma membrane but will not cross the membrane of live cells. The nucleic acids of dead cells fluoresce bright green at 524 nm when excited with the 488 nm spectral source or with any other 450-500 nm source. […] In the cell viability assay chemical ischemia is created in cells that are incubated with the SYTOX dye. The compound antimycin is used to simulate ischemia at the same time as stimulating the cells with forskolin. […] The assay is performed on cells grown in 96-well format allowing high throughput screening of compounds.
Materials: (i)SYTOX Green dye, supplied as a 5 mM solution in DMSO (Molecular Probes # S-7020) is stored at −20° C. until use. ii.) Antimycin-A: (Sigma # A-8674) dissolve […] in 10 ml of DMSO to make a 10 mM stock solution. Aliquot at 100 μl. This 10 mM stock is then diluted to 1 mM with DMSO and aliquoted at 25 μL. Both the 10 mM and the 1 mM are stored at −20° C. until use. (iii) Forskolin (Sigma # F-6886), dissolve 50 mg aliquot in 1.62 ml of DMSO to make a 100 mM stock solution. Aliquot at 100 μl and store at −20° C. until use. iv.) HBSS-SYTOX-FORSKOLIN-ANTIMYCIN (H-S-F-A) solution: H-S-F-A solution is made up fresh prior to each assay in sterile 175 ml or 225 ml Falcon bottles. The working concentrations for the assay are 3 μM SYTOX, 50 μM Forskolin and 30 μM Antimycin.
Cells are grown in 96-well black plates (with or without clear bottoms) at a density of 1000 cells per well for 24 hours. The necessary number of 96-well plates containing the specific cell type are obtained and placed in the laminar flow safety cabinet. A sterile microtiter basin is filled with the appropriate volume of pre-warmed 1×HBSS. Using aseptic technique and an 8-channel aspirator, the media is carefully removed from the cells and replaced with 200 μl of 1×HBSS. This is done as quickly as possible to prevent the cells drying out. The plates are then placed in the humidified 37° C. incubators of the Biomek 2000 Side Loader.

[1] = salts of (+)alpha-tocopherol, dose of tocopherol 1.2 μg/ml
[2] = salts of (+)alpha-tocopherol, dose of tocopherol 3.7 μg/ml
[3] = salts of (+)alpha-tocopherol, dose of tocopherol 11 μg/ml
[4] = salts of (+)alpha-tocopherol, dose of tocopherol 33 μg/ml
[5] = salts of (+)alpha-tocopherol, dose of tocopherol 100 μg/ml
[6] = dose 1.2 μg/ml, with antimycin A, 4 hours, SYTOX
[7] = dose 3.7 μg/ml, with antimycin A, 4 hours, SYTOX
[8] = dose 11 μg/ml, with antimycin A, 4 hours, SYTOX
[9] = dose 33 μg/ml, with antimycin A, 4 hours, SYTOX
[10] = dose 100 μg/ml, with antimycin A, 4 hours, SYTOX

SMILES | Cell Death (%) [1] | Cell Death (%) [2] | Cell Death (%) [3] | Cell Death (%) [4] | Cell Death (%) [5] | Cell Death (%) [6] | Cell Death (%) [7] | Cell Death (%) [8] | Cell Death (%) [9] | Cell Death (%) [10] | also measured
Cc1c(C)c2c(c(C)c1OC(=O)CCC(=O)O)CC[C@@](C)(CCC[C@H](C)CCC[C@H](C)CCCC(C)C)O2 [alpha-tocopherol succinate] | 85.8 ± 1.4% | 83.9 ± 0.3% | 85.5 ± 2.5% | 90.4 ± 7.4% | 98.7 ± 6.0% | – | – | – | – | – | –
O=c1c(-c2ccc(O)cc2)coc2cc(O)ccc12 [daidzein, 7-hydroxy-3-(4-hydroxyphenyl)-4H-1-benzopyran-4-one] | – | – | – | – | – | – | – | – | – | – | cell death when tested individually (daidzein experiment): over half of the cells died
CC(=O)Oc1c(C)c(C)c2c(c1C)CCC(C)(CCC[C@H](C)CCC[C@H](C)CCCC(C)C)O2 (stereo partly drawn) [alpha-tocopherol acetate] | 73.2% ± 3.3 | 77.5% ± 4.9 | 71.1% ± 1.5 | 64.8% ± 4.9 | 38.% ± 2.3 | – | – | – | – | – | Cell Death (%) (salts of (+)alpha-tocopherol, dose of tocopherol 100 μg/ml, listed as acetate salt of alpha-tocopherol): 38%
COc1ccc([C@@H]2CC(=O)c3c(O)cc(O)cc3O2)cc1O [hesperetin, (S)-2,3-dihydro-5,7-dihydroxy-2-(3-hydroxy-4-methoxyphenyl)-4H-1-benzopyran-4-one] | – | – | – | – | – | – | – | – | – | – | efficacy when tested separately (2 and 50 μM heperitin, 0.22 and 3.6 μg/ml tocopherol, cell death four hours later): generally ineffective
Cc1cc(O)cc2c1O[C@](C)(CCC[C@H](C)CCC[C@H](C)CCCC(C)C)CC2 (relative stereo) [(+) delta-tocopherol, [2R-[2R*(4R*,8R*)]]-3,4-dihydro-2,8-dimethyl-2-(4,8,12-trimethyltridecyl)-2H-1-benzo-pyran-6-ol] | – | – | – | – | – | 61.3% ± 4.2 | 39.3% ± 3.8 | 21.3% ± 1.0 | −8.19% ± 1.4 | −68.19% ± | potency among the tocopherols tested: most potent
Cc1c(C)c2c(c(C)c1OC(=O)c1cccnc1)CC[C@@](C)(CCC[C@H](C)CCC[C@H](C)CCCC(C)C)O2 [alpha-tocopherol nicotinate] | 81.0 ± 2.5% | 76.8 ± 7.0% | 74.0 ± 2.4% | 77.5 ± 3.0% | 67.5 ± 2.8% | – | – | – | – | – | –
COc1ccc(-c2cc(=O)c3c(O)cc(O[C@@H]4O[C@H](CO[C@@H]5O[C@@H](C)[C@H](O)[C@@H](O)[C@H]5O)[C@@H](O)[C@H](O)[C@H]4O)cc3o2)cc1O [diosmin, reference compound] | – | – | – | – | – | – | – | – | – | – | protection against stress-induced cell death (diosmin alone at 100 μM): no protection; protection against stress-induced cell death (diosmin alone, 3.3-100 μM): not protective by itself; protection against stress-induced cell death (diosmin alone, 33-100 μM): not effective
Cc1c(C)c2c(c(C)c1OP(=O)(O)O)CC[C@@](C)(CCC[C@H](C)CCC[C@H](C)CCCC(C)C)O2 [alpha-tocopherol phosphate] | 79.7 ± 8.7% | 76.5 ± 4.2% | 83.9 ± 4.4% | 47.2 ± 10.8% | 43.2 ± 17.4% | – | – | – | – | – | –
Cc1c(C)c2c(c(C)c1O)CC[C@@](C)(CCC[C@H](C)CCC[C@H](C)CCCC(C)C)O2 (relative stereo) [(+) alpha-tocopherol, [2R-2R*(4R*,8R*)]-3,4-dihydro-2,5,7,8-tetramethyl-2-(4,8,12-trimethyltridecyl)-2H-1-benzopyran-6-ol] | – | – | – | – | – | 77.0% ± 2.5 | 70.13% ± 5.8 | 64.4% ± 3.1 | 49.8% ± 6.0 | 33.78% ± 1.5 | –
Cc1c(O)cc2c(c1C)OC(C)(CCCC(C)CCCC(C)CCCC(C)C)CC2 (centres unmarked) [+ gamma-tocopherol, 3,4-dihydro-2,7,8-trimethyl-2-(4,8,12-trimethyltridecyl)-2H-1-benzyopyran-6-ol] | – | – | – | – | – | 76.8 ± 3.1% | 69.3 ± 3.3% | 37.2 ± 0.7% | 16.7 ± 1.9% | −8.5 ± 3.3% | cell death (Example 7, alone at 1 μg/ml (highest concentration tested)): 62.5%; potency among the tocopherols tested: most potent; protection against stress-induced cell death (gamma-tocopherol alone, 0.03-0.3 μg/ml): not protective by itself
Cc1c(C)c2c(c(C)c1O)CCC(C)(CCCC(C)CCCC(C)CCCC(C)C)O2 (stereo not drawn) [alpha-tocopherol, 2,5,7,8-tetramethyl-2-(4′,8′,12′-trimethyltridecyl)-6-chromanol] | – | – | – | – | – | – | – | – | – | – | cell death when tested individually (biochanin A experiment): about half of the cells died
Cc1c(C)c2c(c(C)c1O)CCC(C)(CCCC(C)CCCC(C)CCCC(C)C)O2 (racemic) [(+/−) alpha-tocopherol, 2,5,7,8-tetramethyl-2-(4′,8′,12′-trimethyltridecyl)-6-chromanol] | – | – | – | – | – | 77.2% ± 0.8 | 73.5% ± 1.2 | 52.4% ± 3.4 | 44.2% ± 1.2 | 19.7% ± 2.9 | protection against stress-induced cell death ((+/−) alpha-tocopherol alone at 10 μg/ml): about 15%; cell death (Example 7, alone at 10 μg/ml (highest concentration tested)): 53%; cell death (Example 8, tocopherol alone at 10 μg/ml): 79.4%; cell death when tested individually (daidzein experiment): over half of the cells died
COc1ccc(-c2coc3cc(O)cc(O)c3c2=O)cc1 [biochanin A, 5,7-dihydroxy-4′-methoxyiso-flavone] | – | – | – | – | – | – | – | – | – | – | cell death when tested individually (biochanin A experiment): about half of the cells died
